Test results: US20250034132A1, “PROLYL HYDROXYLASE DOMAIN-CONTAINING PROTEIN (PHD) INHIBITORS AND USES THEREOF” (Insilico Medicine IP Limited, priority 2021, published 2025)

Molecular target: PHD2 (Homo sapiens, UniProt Q9GZT9)
Test: PHD2 enzymatic assay (AlphaScreen)
Assay type: biochemical
Details: IC50 from % inhibition

PHD2, sequence (Q9GZT9 whole entry): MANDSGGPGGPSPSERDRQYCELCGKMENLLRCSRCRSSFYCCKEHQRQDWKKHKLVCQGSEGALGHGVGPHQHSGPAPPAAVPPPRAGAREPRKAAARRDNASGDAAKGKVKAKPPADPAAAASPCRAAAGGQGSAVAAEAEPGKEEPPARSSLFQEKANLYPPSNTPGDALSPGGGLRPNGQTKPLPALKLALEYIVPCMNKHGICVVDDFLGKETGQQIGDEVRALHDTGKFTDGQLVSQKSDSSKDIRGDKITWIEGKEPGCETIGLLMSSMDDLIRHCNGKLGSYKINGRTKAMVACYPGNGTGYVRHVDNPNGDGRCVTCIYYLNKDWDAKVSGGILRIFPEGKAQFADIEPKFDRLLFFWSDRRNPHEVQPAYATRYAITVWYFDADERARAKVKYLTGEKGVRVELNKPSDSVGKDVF

- IC50: < 5 nM
Structure (SMILES): N#Cc1ccc(CNC(=O)c2ncc3nc(N4CC(N)C4)ccc3c2O)cn1 [Example 132]
